Laboratory results from patent US12319703B2, “Macrocyclic fused pyrazoles as Mcl-1 inhibitors” (ASCENTAGE PHARMA (SUZHOU) CO., LTD., priority 2019, dated 2025).
Where two headings read alike, the source gives them in different places.

Key:
[1] = biological target: T1, Mcl-1 protein (residues 171-323) (Homo sapiens, UniProt Q07820); experiment: Inhibition of Mcl-1 by fluorescence polarization (FP) competitive binding assay; conditions: FAM-Bid tracer 2 nM, Mcl-1 20 nM, 30 min
T1 construct: Tag-free Mcl-1 protein (residues 171-323) was used in the FP assay
Experimental: Inhibition of Mcl-1 by Fluorescence Polarization (FP) Assay.
The method used a fluorescein labelled peptide (FAM-Bid) which binds to the Mcl-1 protein leading to an increased anisotropy measured in milli-polarization (mP) values using a plate reader.
A 10-points serial dilution of each compound was prepared in DMSO and 5 μL solution was transferred into flat bottomed, 96-well back plate (final DMSO concentration 5%). 120 μL of Buffer (PBS, 0.01% BGG (Sigma Cat. #SRE0011), 0.01% Triton X-100), containing the Fluorescein labelled peptide (Final concentration 2 nM) and Mcl-1 protein (final concentration 20 nM) was then added. […] 10-points dose response curves were plotted with GraphPad software using Sigmoidal Dose-Response Model and the IC50 values were determined by nonlinear regression fitting of the competition curves.

NCI-H929 cells = experiment: Cell viability assay (NCI-H929 cells), CCK-8; type: cell-based; conditions: WST, 5% FBS
Experimental: Cell Viability Assay (NCI-H929 Cells)
NCI-H929 cells were obtained from American Type Culture Collection (ATCC). Cells were maintained in the recommended culture medium (RPMI 1640) with 10% FBS and 0.05 mM BME at 37° C. and an atmosphere of 5% CO2.
The effect of Compounds on cell viability was determined using Cell Counting Kit-8 (CCK-8) assay according to the manufacturer's instructions. 95 μL of NCI-H929 cell suspension (20000 cells/well) in culture medium were seeded into 96-well plates and cultured 4 hrs. Each tested compound was serially diluted in DMSO, then 5 μL of the compound or DMSO was diluted in 95 μL medium once more. At last, 5 μL of the compound dilution was added to the corresponding well of the cell plate. After the addition of the tested compound, the cells were incubated at 37° C. in an atmosphere of 5% CO2 for 24 hrs. At the end, 10 μL of CCK-8 solution was added to each well of the plate and incubated for 1-4 hours. The plates were read at 450 nm on the microplate reader (BioTek Synergy 1MF). The readings were normalized to the vehicle cells, and the IC50 was calculated by nonlinear regression analysis using GraphPad Prism 6 software.

OPM-2 cells = experiment: Cell viability assay (OPM-2 cells), CCK-8; type: cell-based; conditions: WST, 5% FBS, read-out: OPM2 (WST, 5% FBS)
Experimental: Cell Viability Assay (OPM-2 Cells)
OPM-2 cells were obtained from Deutsche Sammlung von Mikroorganismen und Zellkulturen GmbH (DSMZ). […]
The effect of representative Compounds of the Disclosure on cell viability was determined using Cell Counting Kit-8 (CCK-8) assay (Shanghai Life iLab Bio Technology) according to the manufacturer's instructions. Each tested compound was serially diluted in culture medium, 100 μL of the compound dilution was added into 96-well plates. 100 μL of an OPM-2 cell suspension (20000 cells/well) in culture medium were seeded into the corresponding well of the plate and the cells were incubated at 37° C. in an atmosphere of 5% CO2 for 24 hours. In the next day, 20 μL of CCK-8 solution was added to each well of the plate and incubated for 4 hours.
The plates were read at 450 nm on the microplate spectrophotometer (SpectraMax plus 384, Molecular devices). The readings were normalized to the vehicle cells, and the IC50 was calculated by nonlinear regression analysis using GraphPad Prism 6 software.

T1 sequence (Q07820 171-323): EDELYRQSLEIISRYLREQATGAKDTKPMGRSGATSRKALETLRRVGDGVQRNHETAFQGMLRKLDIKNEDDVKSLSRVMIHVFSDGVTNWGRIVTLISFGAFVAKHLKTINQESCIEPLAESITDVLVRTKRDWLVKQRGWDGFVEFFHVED

Structure (SMILES)	IC50 [1] [nM]	IC50 (NCI-H929 cells; Homo sapiens, NCI-H929, 24 h) [nM]	IC50 (NCI-H929 cells; 24 h) [nM]	IC50 (OPM-2 cells; Homo sapiens, OPM-2, 24 h) [nM]	IC50 (OPM-2 cells; 24 h) [nM]
Cc1nc2oc1CSc1cc(c3ccccc3c1)OCCCc1c(C(=O)O)n(C)c3c(c(Cl)ccc13)-c1c(nn3c1CCC3)CSC2 [compound 10, 1^6-chloro-1^1,6^4-dimethyl-2^5,2^6-dihydro-1^1H,2^4H-10-oxa-4,8-dithia-6(2,5)-oxazola-1(7,3)-indola-2(3,2)-pyrrolo[1,2-naphthalenacyclotridecaphane-b]pyrazola-9(3,1)-1^2-carboxylic acid]	10.5	1970	–	8810	–
Cc1c(Cl)cc2cc1SCc1cc(nn1C)CSCc1nn3c(c1-c1c(Cl)ccc4c(c(C(=O)O)n(C)c14)CCCO2)CCCC3 [Cpd. No. 37, (Z)-1^6,9^5-dichloro-1^1,6^1,9^6-trimethyl-2^4,2^5,2^6 2^7-tetrahydro-1^1H,6^1-10-oxa-4,8-dithia-2(3,2)-pyrazolo[1,5-a]pyridina-1(7,3)-indola-6(3,5)-pyrazola-9(1,3)-benzenacyclotridecaphane-1^2-carboxylic acid]	38	535	–	1050	–
Cn1nc2cc1CSc1cc(c3ccccc3c1)OCCCc1c(C(=O)O)n(C)c3c(c(Cl)ccc13)-c1c(nn3c1OCC3)CSC2 [compound 6, (Z)-1^6-chloro-1^1,6^1-dimethyl-2^2,2^3-dihydro-1^1H,6^1H-10-oxa-4,8-dithia-2(7,6)-pyrazolo[5,1-b]oxazola-1(7,3)-indola-6(3,5)-pyrazola-9(3,1)-naphthalenacyclotridecaphane-1^2-carboxylic acid]	15	234	–	1350	–
Cn1nc2cc1CSc1cc(cc(C(F)(F)F)c1)OCCCc1c(C(=O)O)n(C)c3c(c(Cl)ccc13)-c1c(nn3c1COCC3)CSC2 [Cpd. No. 33, (Z)-1^6-chloro-1^1,6^1-dimethyl-9^5-(trifluoromethyl)-2^6,2^7-dihydro-11H,2^4H,6^1H-10-oxa-4,8-dithia-2(3,2)-pyrazolo[5,1-c][1,4]oxazina-1(7,3)-indola-6(3,5)-pyrazola-9(1,3)-benzenacyclotridecaphane-1^2-carboxylic acid]	12	361	–	965	–
Cn1nc2cc1CSc1cc(c3ccccc3c1)OCCCc1c(C(=O)O)n(C)c3c(c(Cl)ccc13)-c1c(nn3c1OCCC3)CSC2 [compound 22, (Z)-1^6-chloro-1^1,61-dimethyl-2^6,2^7-dihydro-1^1H,2^5H,6^1H-10-oxa-4,8-dithia-2(3,2)-pyrazolo[5,1-b][1,3]oxazina-1(7,3)-indola-6(3,5)-pyrazola-9(3,1)-naphthalenacyclotridecaphane-1^2-carboxylic acid]	15.9	225	–	1150	–
Cn1c(C(=O)O)c2c3ccc(Cl)c(c31)-c1c(nn3c1CCC3)CSCc1cc(on1)CSc1cc(c3ccccc3c1)OCCC2 [compound 8, (Z)-1^6-chloro-1^1-methyl-2^5,2^6-dihydro-1^1H,2^4H-10-oxa-4,8-dithia-6(3,5)-isoxazola-1(7,3)-indola-2(3,2)-pyrrolo[1,2-b]pyrazola-9(3,1)-naphthalenacyclotridecaphane-1^2-carboxylic acid]	10.2	2940	–	> 10000	–
Cn1nc2cc1CSc1cc(c3ccccc3c1)OCCCc1c(C(=O)O)n(C)c3c(c(Cl)ccc13)-c1c(nn3c1CCC3)CSC2 (atropisomer, axis not shown) [Cpd. No. 52, (R)-(Z)-1^6-chloro-1^1,6^1-dimethyl-2^5,2^6-dihydro-1^1H,2^4H,6^1H-10-oxa-4,8-dithia-1(7,3)-indola-2(3,2)-pyrrolo[1,2-b]pyrazola-6(3,5)-pyrazola-9(3,1)-naphthalenacyclotridecaphane-1^2-carboxylic acid]	–	–	63	–	353
Cn1nc2cc1CSc1cc(c3ccccc3c1)OCCCc1c(C(=O)O)n(C)c3c(c(Cl)ccc13)-c1c(nn3c1CCC3)CSC2 (atropisomer, axis not shown) [Cpd. No. 53, (S)-(Z)-1^6-chloro-1^1,6^1-dimethyl-2^5,2^6-dihydro-1^1H,2^4H,6^1H-10-oxa-4,8-dithia-1(7,3)-indola-2(3,2)-pyrrolo[1,2-b]pyrazola-6(3,5)-pyrazola-9(3,1)-naphthalenacyclotridecaphane-1^2-carboxylic acid]	–	–	4400	–	5720

Further lines, with some results ahead:

IC50 [1] [nM]	IC50 (NCI-H929 cells; Homo sapiens, NCI-H929, 24 h) [nM]	IC50 (NCI-H929 cells; 24 h) [nM]	Structure (SMILES)	IC50 (OPM-2 cells; Homo sapiens, OPM-2, 24 h) [nM]	IC50 (OPM-2 cells; 24 h) [nM]
8.7	5110	–	Cn1c(C(=O)O)c2c3ccc(Cl)c(c31)-c1c(nn3c1CCC3)CSCc1csc(n1)CSc1cc(c3ccccc3c1)OCCC2 [compound 3, (Z)-1^6-chloro-1^1-methyl-2^5,2^6-dihydro-1^1H,2^4H-10-oxa-4,8-dithia-6(4,2)-thiazola-1(7,3)-indola-2(3,2)-pyrrolo[l,2-b]pyrazola-9(3,1)-naphthalenacyclotridecaphane-1^2-carboxylic acid]	6580	–
19	110	–	Cn1nc2cc1CSc1cc(c3ccc(F)cc3c1)OCCCc1c(C(=O)O)n(C)c3c(c(Cl)ccc13)-c1c(C(F)F)nn(C)c1CN(S(C)(=O)=O)C2 [compound 51, (Z)-1^6-chloro-2^3-(difluoromethyl)-9^6-fluoro-1^1,2^1,6^1-trimethyl-4-(methylsulfonyl)-1^1H,2^1H,6^1H-10-oxa-8-thia-4-aza-1(7,3)-indola-2(4,5),6(3,5)-dipyrazola-9(3,1)-naphthalenacyclotridecaphane-1^2-carboxylic acid]	152	–
17	261	–	Cn1nc2cc1CSc1cc(c3ccc(F)cc3c1)OCCCc1c(C(=O)O)n(C)c3c(c(Cl)ccc13)-c1c(nn3c1COCC3)CN(S(C)(=O)=O)C2 [compound 42, (Z)-1^6-chloro-9^6-fluoro-1^1,6^1-dimethyl-4-(methylsulfonyl)-2^6,2^7-dihydro-1^1H,2^4H,6^1H-10-oxa-8-thia-4-aza-2(3,2)-pyrazolo[5,1-c][1,4]oxazina-1(7,3)-indola-6(3,5)-pyrazola-9(3,1)-naphthalenacyclotridecaphane-1^2-carboxylic acid]	357	–
13	411	–	Cn1nc2cc1CSc1cc(c3ccccc3c1)OCCCc1c(C(=O)O)n(C)c3c(c(Cl)ccc13)-c1c(nn3c1CCC3)CS(=O)(=O)C2 [compound 9, (Z)-1^6-chloro-1^1,6^1-dimethyl-2^5,2^6-dihydro-1‘H,2^4H,6^1H-10-oxa-4,8-dithia-1(7,3)-indola-2(3,2)-pyrrolo[1,2-b]pyrazola-6(3,5)-pyrazola-9(3,1)-naphthalenacyclotridecaphane-1^2-carboxylic acid 4,4-dioxide]	1170	–
14	287	–	Cn1c(C(=O)O)c2c3ccc(Cl)c(c31)-c1c(nn3c1CCC3)CSCc1coc(n1)CSc1cc(c3ccccc3c1)OCCC2 [compound 2, (Z)-1^6-chloro-1^1-methyl-2^5,2^6-dihydro-1^1H,2^4H-10-oxa-4,8-dithia-6(4,2)-oxazola-1(7,3)-indola-2(3,2)-pyrrolo[1,2-b]pyrazola-9(3,1)-naphthalenacyclotridecaphane-1^2-carboxylic acid]	1140	–
19.1	–	–	Cn1c(C(=O)O)c2c3ccc(Cl)c(c31)-c1c(nn3c1CCC3)CSCC1=NC=C(CSc3cc(c4ccccc4c3)OCCC2)S1 [compound 4, 1^6-chloro-1^1methyl-2^5,2^6-dihydro-1^1H,2^4H-10-oxa-4,8-dithia-6(2,5)-thiazola-1(7,3)-indola-2(3,2)-pyrrolo[1,2-b]pyrazola-9(3,1)-naphthalenacyclotridecaphane-1^2-carboxylic acid]	5300	–
